In patent US20240158446A1, “CYCLIC COMPOUND HAVING SELECTIVE INHIBITORY ACTION ON KRAS OVER HRAS AND NRAS” (CHUGAI SEIYAKU KABUSHIKI KAISHA, priority 2021, published 2024):
Like-named read-outs stand apart in the source and are kept apart here. Where a SMILES comes first, the peptide text is derived from it. Bridges are numbered along the chain shown (N, C = ends). [ ]: non-standard residue; d: D form. The star is where a group is joined. hPhe(3-Cl-4-CF3) = N[C@@H](CCc1ccc(C(F)(F)F)c(Cl)c1)C(=O)O; NPrPhe(4-CF3) = CCCN[C@@H](Cc1ccc(C(F)(F)F)cc1)C(=O)O; NMeGly(cPent) = CN[C@H](C(=O)O)C1CCCC1; Hyp = O=C(O)[C@@H]1C[C@@H](O)CN1; NMeD = CN[C@@H](CC(=O)O)C(=O)O; NMeL = CN[C@@H](CC(C)C)C(=O)O; Morpholide = C1CN(*)CCO1; NMeA = CN[C@@H](C)C(=O)O; Aze = O=C(O)[C@@H]1CCN1; Ac4c = NC1(C(=O)O)CCC1; Sar = CNCC(=O)O

What was measured:
[1] = biological target: GDP-bound NRAS wild-type protein (Homo sapiens, UniProt P01111); experiment: Binding to NRAS by surface plasmon resonance (SPR), Single Cycle Kinetics; details: for NRAS/KRAS (ratio of KD value with respect to GDP-bound NRAS wild-type protein to KD value with respect to KRAS): SPR KD ratio NRAS/KRAS, class symbols; for NRAS/KRAS (ratio of KD value for NRAS to KD value for KRAS): SPR, GDP-bound NRAS wild-type protein vs GDP-bound KRAS wild-type protein
Chain of GDP-bound NRAS wild-type protein (P01111 whole entry): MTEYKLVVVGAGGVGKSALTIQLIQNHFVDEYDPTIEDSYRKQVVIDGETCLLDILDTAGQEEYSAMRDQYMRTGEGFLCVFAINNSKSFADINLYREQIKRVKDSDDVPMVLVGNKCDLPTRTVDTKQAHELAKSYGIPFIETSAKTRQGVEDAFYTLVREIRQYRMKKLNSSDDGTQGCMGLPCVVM

[2] = biological target: GDP-bound KRAS wild-type protein (Homo sapiens, UniProt P01116); experiment: Binding to KRAS by surface plasmon resonance (SPR), Single Cycle Kinetics; details: GDP-bound KRAS wild-type protein, read-out: KRAS KD
Chain of GDP-bound KRAS wild-type protein (P01116 whole entry): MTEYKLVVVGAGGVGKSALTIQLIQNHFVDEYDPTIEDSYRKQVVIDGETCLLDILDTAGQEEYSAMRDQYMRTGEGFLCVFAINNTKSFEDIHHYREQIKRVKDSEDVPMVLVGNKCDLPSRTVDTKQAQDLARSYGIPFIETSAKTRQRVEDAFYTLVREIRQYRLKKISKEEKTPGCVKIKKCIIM

[3] = biological target: GDP-bound HRAS wild-type protein (Homo sapiens, UniProt P01112); experiment: Binding to HRAS by surface plasmon resonance (SPR), Single Cycle Kinetics; details: for HRAS/KRAS (ratio of KD value with respect to GDP-bound HRAS wild-type protein to KD value with respect to KRAS): SPR KD ratio HRAS/KRAS, class symbols; for HRAS/KRAS (ratio of KD value for HRAS to KD value for KRAS): SPR, GDP-bound HRAS wild-type protein vs GDP-bound KRAS wild-type protein
Chain of GDP-bound HRAS wild-type protein (P01112 whole entry): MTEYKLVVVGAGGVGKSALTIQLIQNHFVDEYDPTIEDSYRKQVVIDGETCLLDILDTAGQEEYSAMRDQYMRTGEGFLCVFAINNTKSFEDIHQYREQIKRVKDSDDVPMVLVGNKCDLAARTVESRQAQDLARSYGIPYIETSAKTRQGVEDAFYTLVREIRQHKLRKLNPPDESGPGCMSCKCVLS

[4] = SPR Single Cycle Kinetics, 1:1 binding model
[5] = SPR, Single Cycle Kinetics, 1:1 binding model

SMILES | Kd [2, 4] [nM] | Kd ([2]; SPR, Single Cycle Kinetics) [nM] | NRAS/KRAS (ratio of KD value with respect to GDP-bound NRAS wild-type protein to KD value with respect to KRAS) [1] | HRAS/KRAS (ratio of KD value with respect to GDP-bound HRAS wild-type protein to KD value with respect to KRAS) [3] | NRAS/KRAS (ratio of KD value for NRAS to KD value for KRAS) [1] | HRAS/KRAS (ratio of KD value for HRAS to KD value for KRAS) [3] | other results
CC[C@H](C)[C@@H]1NC(=O)[C@H](CC(C)C)N(C)C(=O)C[C@@H](C)N(C)C(=O)[C@H](C2CCCC2)N(C)C(=O)C2(CCCC2)NC(=O)[C@@H]2CCCN2C(=O)[C@H](CCc2cc(F)c(C(F)(F)F)c(F)c2)NC(=O)CN(C)C(=O)[C@H](Cc2ccc(C(F)(F)F)cc2)N2CC/C=C\C[C@@H](C2=O)N(C)C(=O)CN(C)C1=O [PP1102] |  | 0.95 |  |  | B (a compound having 3 or more and less than 10 is denoted as B) | A (a compound having 10 or more and less than 20 is denoted as A) | 
CC[C@H](C)[C@@H]1NC(=O)[C@H](CC2CC2)N(C)C(=O)C[C@@H](C(=O)N(C)C)N(C)C(=O)[C@H](C2CCCC2)N(C)C(=O)C2(CCC2)NC(=O)[C@@H]2[C@@H](OCC(F)F)CCN2C(=O)[C@H](CCc2cc(F)c(C(F)(F)F)c(F)c2)NC(=O)CN(C)C(=O)[C@H](Cc2ccc(C(F)(F)F)cc2)N2CC/C=C\C[C@@H](C2=O)N(C)C(=O)CN(C)C1=O [PP1533] |  |  |  |  |  |  | NRAS/KRAS (ratio of KD value for NRAS to KD value for KRAS) ([1]; KD ratio class): AA (a compound having 20 or more is denoted as AA); Kd [2, 5]: 0.13 nM; HRAS/KRAS (ratio of KD value for HRAS to KD value for KRAS) ([3]; KD ratio class): A (a compound having 10 or more and less than 20 is denoted as A)
CCCO[C@@H]1CCN2C(=O)[C@H](CCc3cc(F)c(C(F)(F)F)c(F)c3)NC(=O)CN(C)C(=O)[C@H](Cc3ccc(C(F)(F)F)cc3)N3CCCC[C@@H](C3=O)N(C)C(=O)CN(C)C(=O)[C@H]([C@@H](C)CC)NC(=O)[C@H](CC(C)C)N(C)C(=O)C[C@@H](C(=O)N3CCOCC3)N(C)C(=O)[C@H](C3CCCC3)N(C)C(=O)C3(CCC3)NC(=O)[C@H]12 [PP1080] |  | 0.24 |  |  | B (a compound having 3 or more and less than 10 is denoted as B) | B (a compound having 3 or more and less than 10 is denoted as B) | 
CCO[C@@H]1C[C@H]2C(=O)NC3(CCC3)C(=O)N(C)[C@@H](C(CC)CC)C(=O)N(C)[C@H](C)CC(=O)N(C)[C@@H](CC3CCCC3)C(=O)N[C@@H]([C@@H](C)CC)C(=O)N(C)CC(=O)N(C)[C@H]3C/C=C\CCN(C3=O)[C@@H](Cc3ccc(F)cc3C)C(=O)N(C)CC(=O)N[C@@H](CCc3cc(F)c(C(F)(F)F)c(F)c3)C(=O)N2C1 [PP1522] |  |  |  |  |  |  | NRAS/KRAS (ratio of KD value for NRAS to KD value for KRAS) ([1]; KD ratio class): A (a compound having 10 or more and less than 20 is denoted as A); Kd [2, 5]: 8.8 nM; HRAS/KRAS (ratio of KD value for HRAS to KD value for KRAS) ([3]; KD ratio class): A (a compound having 10 or more and less than 20 is denoted as A)
CCC(CC)[C@H]1C(=O)N(C)[C@H](C(=O)N(C)C)CC(=O)N(C)[C@H]2CCC/C=C/c3ccc(cc3)C[C@@H](C(=O)N(C)CC(=O)N[C@@H](CCc3cc(F)c(C(F)(F)F)c(F)c3)C(=O)N3C[C@H](OC(C)C)C[C@H]3C(=O)NC3(CC(C)(C)C3)C(=O)N1C)N1CC/C=C\C[C@@H](C1=O)N(C)C(=O)CN(C)C(=O)[C@H]([C@@H](C)CC)NC2=O [PP2594] | 0.1 |  | A (a compound having 10 or more and less than 20 is denoted as A) | A (a compound having 10 or more and less than 20 is denoted as A) |  |  | 
CCO[C@@H]1C[C@H]2C(=O)NC3(CCC3)C(=O)N(C)[C@@H](C3CCCC3)C(=O)N(C)[C@H](C(=O)N3CCOCC3)CC(=O)N(C)[C@@H](Cc3ccc(C)cc3)C(=O)N[C@@H]([C@@H](C)CC)C(=O)N(C)CC(=O)N(C)[C@H]3CCCCCN(C3=O)[C@@H](Cc3ccc(C(F)(F)F)cc3)C(=O)N(C)CC(=O)N[C@@H](CCc3cc(F)c(C(F)(F)F)c(F)c3)C(=O)N2C1 [PP0933] |  | 1.6 |  |  | A (a compound having 10 or more and less than 20 is denoted as A) | B (a compound having 3 or more and less than 10 is denoted as B) | 

Second part, led by results:

Kd [2, 4] [nM] | Kd ([2]; SPR, Single Cycle Kinetics) [nM] | SMILES | NRAS/KRAS (ratio of KD value with respect to GDP-bound NRAS wild-type protein to KD value with respect to KRAS) [1] | HRAS/KRAS (ratio of KD value with respect to GDP-bound HRAS wild-type protein to KD value with respect to KRAS) [3] | NRAS/KRAS (ratio of KD value for NRAS to KD value for KRAS) [1] | HRAS/KRAS (ratio of KD value for HRAS to KD value for KRAS) [3] | other results
0.28 |  | CCC[C@H]1C(=O)N[C@@H]([C@@H](C)CC)C(=O)N(C)CC(=O)N(C)[C@H]2C/C=C\CCN(C2=O)[C@@H](Cc2ccc(C(F)(F)F)cc2)C(=O)N(C)CC(=O)N[C@@H](CCc2ccc3sc(F)c(C)c3c2)C(=O)N2C[C@H](OCC)C[C@H]2C(=O)NC2(CC(C)(C)C2)C(=O)N(C)[C@@H](C(CC)CC)C(=O)N(C)[C@H](C(=O)N(C)C)CC(=O)N1C [PP2892] | A (a compound having 10 or more and less than 20 is denoted as A) | A (a compound having 10 or more and less than 20 is denoted as A) |  |  | 
 | 0.038 | CCO[C@@H]1C[C@H]2C(=O)NC3(CCC3)C(=O)N(C)[C@@H](C3CCCC3)C(=O)N(C)[C@H](C(=O)N(C)C)CC(=O)N(C)[C@@H](CC(C)C)C(=O)N[C@@H]([C@@H](C)CC)C(=O)N(C)CC(=O)N(C)[C@H]3C/C=C\CCN(C3=O)[C@@H](Cc3ccc(C(F)(F)F)cc3)C(=O)N(C)CC(=O)N[C@@H](CCc3cc(F)c(C(F)(F)F)c(F)c3)C(=O)N2C1 [PP1107, (2S,8S,12R,14S,20S,23S,27S,30S,36S,38Z)-20-cyclopentyl-8-[2-[3,5-difluoro-4-(trifluoromethyl)phenyl]ethyl]-12-ethoxy-27-isobutyl-N,N,4,19,22,26,32,35-octamethyl-30-[(1S)-1-methylpropyl]-3,6,9,15,18,21,25,28,31,34,42-undecaoxo-2-[[4-(trifluoromethyl)phenyl]methyl]spiro[1,4,7,10,16,19,22,26,29,32,35-undecazatricyclo[34.5.1.0^10,14]dotetracont-38-ene-17,1′-cyclobutane]-23-carboxamide] |  |  | A (a compound having 10 or more and less than 20 is denoted as A) | A (a compound having 10 or more and less than 20 is denoted as A) | 
0.042 |  | CCCN1C(=O)[C@@H]2CCN2C(=O)[C@H](C)N(C)C(=O)[C@H]([C@@H](C)CC)NC(=O)[C@H](CC(C)C)N(C)C(=O)C[C@@H](C(=O)N2CCOCC2)N(C)C(=O)[C@H](C2CCCC2)N(C)C(=O)C2(CCC2)NC(=O)[C@@H]2C[C@@H](OCC)CN2C(=O)[C@H](CCc2ccc(C(F)(F)F)c(Cl)c2)NC(=O)CN(C)C(=O)[C@@H]1Cc1ccc(C(F)(F)F)cc1 [PP0406] ([NMeL]I[NMeA][Aze][NPrPhe(4-CF3)][Sar][hPhe(3-Cl-4-CF3)][Hyp](Et)[Ac4c][NMeGly(cPent)][NMeD]-Morpholide; lactam N-11) |  |  | C (A compound having a KD ratio of 0.1 or more and less than 3 is denoted as C) | B (a compound having 3 or more and less than 10 is denoted as B) | 
0.26 |  | CCO[C@@H]1C[C@H]2C(=O)NC3(CC(C)(C)C3)C(=O)N(C)[C@@H](C3CCCC3)C(=O)N(C)[C@H](C(=O)N(C)CC)CC(=O)N(C)[C@@H](CC)C(=O)N[C@@H]([C@@H](C)CC)C(=O)N(C)CC(=O)N(C)[C@H]3C/C=C\CCN(C3=O)[C@@H](Cc3ccc(C(F)(F)F)cc3)C(=O)N(C)CC(=O)N[C@@H](CCc3ccc(Cl)c(Cl)c3)C(=O)N2C1 [PP2822] | A (a compound having 10 or more and less than 20 is denoted as A) | A (a compound having 10 or more and less than 20 is denoted as A) |  |  | 
0.086 |  | CCO[C@@H]1C[C@H]2C(=O)NC3(CC(C)(C)C3)C(=O)N(C)[C@@H](C(CC)CC)C(=O)N(C)[C@H](C(=O)N(C)C)CC(=O)N(C)[C@H]3CCC/C=C/c4ccc(cc4)C[C@@H](C(=O)N(C)CC(=O)N[C@@H](CCc4cc(F)c(C(F)(F)F)c(F)c4)C(=O)N2C1)N1CC/C=C\C[C@@H](C1=O)N(C)C(=O)CN(C)C(=O)[C@H]([C@@H](C)CC)NC3=O [PP2575] | A (a compound having 10 or more and less than 20 is denoted as A) | A (a compound having 10 or more and less than 20 is denoted as A) |  |  | 
 | 2.3 | CCO[C@@H]1C[C@H]2C(=O)NC3(CC(C)(C)C3)C(=O)N(C)[C@@H](C(CC)CC)C(=O)N(C)[C@H](C(=O)N(C)C)CC(=O)N(C)[C@@H](C)C(=O)N[C@@H]([C@@H](C)CC)C(=O)N(C)CC(=O)N(C)[C@H]3C/C=C\CCN(C3=O)[C@@H](Cc3ccc(C)cc3)C(=O)N(C)CC(=O)N[C@@H](CCc3ccc(Cl)c(Cl)c3)C(=O)N2C1 [PP2186] |  |  | AA (a compound having 20 or more is denoted as AA) | A (a compound having 10 or more and less than 20 is denoted as A) | 
 | 0.36 | CCC[C@H]1C(=O)N[C@@H](C2CCCCC2)C(=O)N(C)CC(=O)N(C)[C@H]2C/C=C\CCN(C2=O)[C@@H](Cc2ccc(C(F)(F)F)cc2)C(=O)N(C)CC(=O)N[C@@H](CCc2ccc(C(F)(F)F)c(Cl)c2)C(=O)N2C[C@H](OCC)C[C@H]2C(=O)NC2(CC(C)(C)C2)C(=O)N(C)[C@@H](C2CCCC2)C(=O)N(C)[C@H](C(=O)N(C)C)CC(=O)N1C [PP2996] |  |  | AA (a compound having 20 or more is denoted as AA) | A (a compound having 10 or more and less than 20 is denoted as A) | 
